This note sets out measurements from patent publication US20150259344A1, “IMIDAZOLE DERIVATIVE” (DAINIPPON SUMITOMO PHARMA CO., LTD., priority 2012, published 2015).

This test concerns the target T1, human α7 nAChR (Homo sapiens, UniProt P36544).
T1 construct: expressed in transfected cells
Briefly: Evaluation of PAM activity with human α7 nACh receptor stably expressing cells (aequorin luminescence, FDSS7000). The test is classed as cell-based. The following applies: ACh at EC20, ratio of RLU (Max-Min) to control wells; for activity at 10 µM: 10 μM test compound, read-out: α7PAM (%) @10 μM; for activity at 1 µM: 1 μM test compound (values marked *, footnote of Table 25), read-out: α7PAM (%) @1 μM. In short, it runs like this: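 Human α7 nAChR stable cells loaded with 4 μM Viviren (final) for 4 h at room temperature in the dark. Compounds in Hanks/20 mM HEPES/0.2% BSA were added and luminescence recorded on FDSS7000. PAM activity = RLU (Max-Min) ratio of test wells to control wells.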

T1 sequence (P36544 23-502): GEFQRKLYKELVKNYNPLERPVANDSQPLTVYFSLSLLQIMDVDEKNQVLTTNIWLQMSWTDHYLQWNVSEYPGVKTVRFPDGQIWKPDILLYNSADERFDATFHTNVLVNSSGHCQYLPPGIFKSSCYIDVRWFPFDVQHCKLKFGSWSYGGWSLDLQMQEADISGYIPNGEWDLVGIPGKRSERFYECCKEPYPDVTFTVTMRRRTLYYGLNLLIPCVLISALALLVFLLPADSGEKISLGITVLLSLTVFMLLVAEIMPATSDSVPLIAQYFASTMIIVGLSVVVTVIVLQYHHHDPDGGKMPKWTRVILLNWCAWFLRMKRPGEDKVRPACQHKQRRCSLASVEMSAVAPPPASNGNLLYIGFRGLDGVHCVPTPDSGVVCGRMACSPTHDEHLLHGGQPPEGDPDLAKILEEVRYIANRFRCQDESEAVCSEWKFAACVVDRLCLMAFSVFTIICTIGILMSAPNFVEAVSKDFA

On to `COc1ccc(-c2cn([C@H]3CC[C@@H](NC(=O)C(C)(C)F)CC3)cn2)cc1Cl` [Example 308], for which the activity at 10 µM turned out to be 513%.

For the compound `COc1cc(-c2cn([C@H]3CC[C@@H](NC(=O)C(C)(C)F)CC3)cn2)ccc1Cl` [Example 309], the activity at 1 µM came out at 181%. As to `CC(C)(F)C(=O)N[C@H]1CC[C@@H](n2cnc(-c3ccc(F)c(F)c3)c2)CC1` [Example 310], the activity at 10 µM is 227%.

For the compound `CC(C)(F)C(=O)N[C@H]1CC[C@@H](n2cnc(-c3ccccc3OC(F)(F)F)c2)CC1` [Example 311], the activity at 10 µM amounted to 290%. In the case of `CC(C)(F)C(=O)N[C@H]1CC[C@@H](n2cnc(-c3ccc(F)c(F)c3F)c2)CC1` [Example 312], the activity at 10 µM turned out to be 662%.

As for `CC(C)(F)C(=O)N[C@H]1CC[C@@H](n2cnc(-c3cc(F)c(F)cc3F)c2)CC1` [Example 313], the activity at 1 µM is 273%.

For the compound `CC(C)(F)C(=O)N[C@H]1CC[C@@H](n2cnc(-c3c(F)cc(F)cc3F)c2)CC1` [Example 314], the activity at 10 µM worked out at 591%. Regarding `CC(C)(F)C(=O)N[C@H]1CC[C@@H](n2cnc(-c3c(F)cccc3F)c2)CC1` [Example 315], the activity at 10 µM is 501%. Regarding `CC(C)(F)C(=O)N[C@H]1CC[C@@H](n2cnc(-c3cc(F)c(Cl)cc3F)c2)CC1` [Example 316], the activity at 1 µM came to 267%. `CC(C)(F)C(=O)N[C@H]1CC[C@@H](n2cnc(-c3cc(F)c(F)cc3Cl)c2)CC1` [Example 317]: the activity at 1 µM is 345%. For the compound `CC(C)(F)C(=O)N[C@H]1CC[C@@H](n2cnc(-c3cc(Cl)c(F)cc3F)c2)CC1` [Example 318], the activity at 1 µM amounted to 179%.

On to `COc1cc(F)c(-c2cn([C@H]3CC[C@@H](NC(=O)C(C)(C)F)CC3)cn2)cc1F` [Example 319], for which the activity at 10 µM came out at 328%. Regarding `CC(C)(C)C(=O)N[C@H]1CC[C@@H](n2cnc(-c3ccc(OC(F)(F)F)cc3)c2Cl)CC1` [Example 321], the activity at 10 µM amounted to 800%. Regarding `CC(C)(C)C(=O)N[C@H]1CC[C@@H](n2cnc(-c3ccc(Cl)cc3)c2Cl)CC1` [Example 322], the activity at 10 µM stood at 314%. The same measure, in the same setting: to `O=C(N[C@H]1CC[C@@H](n2cnc(-c3ccc(F)cc3)c2Cl)CC1)C1CCOCC1` [Example 323] belongs 421%.

In the case of `CC(C)(F)C(=O)N[C@H]1CC[C@@H](n2cnc(-c3ccc(OC(F)(F)F)c(F)c3)c2Cl)CC1` [Example 324], the activity at 10 µM is 860%. For `CC(C)(F)C(=O)N[C@H]1CC[C@@H](n2cnc(-c3cccc(OC(F)(F)F)c3)c2Cl)CC1` [Example 325], the activity at 10 µM turned out to be 210%. In the case of `CC(C)(F)C(=O)N[C@H]1CC[C@@H](n2cnc(-c3cc(OC(F)(F)F)ccc3F)c2Cl)CC1` [Example 328], the activity at 1 µM was 859%. Take `CC(C)(F)C(=O)N[C@H]1CC[C@@H](n2cnc(-c3cc(F)ccc3F)c2Cl)CC1` [Example 329]: the activity at 10 µM was determined as 643%. On the same count and under the same terms, as for `CC(C)(F)C(=O)N[C@H]1CC[C@@H](n2cnc(-c3ccc(F)c(OC(F)(F)F)c3)c2Cl)CC1` [Example 330], the figure is 154%.

As to `CC(C)(F)C(=O)N[C@H]1CC[C@@H](n2cnc(-c3ccccc3OC(F)(F)F)c2Cl)CC1` [Example 331], the activity at 1 µM is 467%.

Take `CC(C)(F)C(=O)N[C@H]1CC[C@@H](n2cnc(-c3ccc(F)cc3)c2C#N)CC1` [Example 332, N-{cis-4-[5-cyano-4-(4-fluorophenyl)-1H-imidazol-1-yl]cyclohexyl}-2-fluoro-2-methylpropanamide]: the activity at 10 µM was found to be 464%. Still for that read-out and setting: to `CC(C)(F)C(=O)N[C@H]1CC[C@@H](n2cnc(-c3ccc(Cl)cc3)c2C#N)CC1` [Example 333] belongs 233%. As for `CC(C)(C)C(=O)N[C@H]1CC[C@@H](n2cnc(-c3ccc(Cl)cc3)c2C#N)CC1` [Example 334], the activity at 1 µM is 212%. On to `N#Cc1c(-c2ccc(F)cc2)ncn1[C@H]1CC[C@@H](NC(=O)C2CCC(F)(F)CC2)CC1` [Example 335], for which the activity at 10 µM was 312%. Still for that read-out and setting: as for `N#Cc1c(-c2ccc(F)cc2)ncn1[C@H]1CC[C@@H](NC(=O)C2CCOCC2)CC1` [Example 336], the figure is 557%.

On to `CC(C)(F)C(=O)N[C@H]1CC[C@@H](n2cnc(-c3ccccc3F)c2C#N)CC1` [Example 337], for which the activity at 10 µM is 492%.

As for `CC(C)(F)C(=O)N[C@H]1CC[C@@H](n2cnc(-c3cccc(F)c3)c2C#N)CC1` [Example 338], the activity at 10 µM is 192%. For the compound `CC(C)(F)C(=O)N[C@H]1CC[C@@H](n2cnc(-c3cccc(F)c3F)c2C#N)CC1` [Example 339], the activity at 10 µM amounted to 351%. As for `CC(C)(F)C(=O)N[C@H]1CC[C@@H](n2cnc(-c3ccc(F)cc3F)c2C#N)CC1` [Example 340], the activity at 10 µM came out at 377%.

With `CC(C)(F)C(=O)N[C@H]1CC[C@@H](n2cnc(-c3cc(F)ccc3F)c2C#N)CC1` [Example 341], the activity at 10 µM was determined as 233%. For `CC(C)(F)C(=O)N[C@H]1CC[C@@H](n2cnc(-c3ccc(F)c(F)c3)c2C#N)CC1` [Example 342], the activity at 10 µM is 369%.

Turning to `CC(C)(F)C(=O)N[C@H]1CC[C@@H](n2cnc(-c3cc(F)cc(F)c3)c2C#N)CC1` [Example 343], the activity at 1 µM was 380%. As to `CC(C)(F)C(=O)N[C@H]1CC[C@@H](n2cnc(-c3ccccc3OC(F)(F)F)c2C#N)CC1` [Example 344], the activity at 10 µM was 220%.

On to `CC(C)(F)C(=O)N[C@H]1CC[C@@H](n2cnc(-c3cccc(OC(F)(F)F)c3)c2C#N)CC1` [Example 345], for which the activity at 10 µM was 153%. For the compound `CC(C)(F)C(=O)N[C@H]1CC[C@@H](n2cnc(-c3ccc(OC(F)(F)F)cc3)c2C#N)CC1` [Example 346], the activity at 10 µM was 169%.

Regarding `CC(C)(F)C(=O)N[C@H]1CC[C@@H](n2cnc(-c3ccc(OC(F)(F)F)cc3F)c2C#N)CC1` [Example 347], the activity at 10 µM was 130%. Turning to `CC(C)(F)C(=O)N[C@H]1CC[C@@H](n2cnc(-c3ccc(OC(F)(F)F)c(F)c3)c2C#N)CC1` [Example 348], the activity at 10 µM was determined as 131%. For `CC(C)(F)C(=O)N[C@H]1CC[C@@H](n2cnc(-c3cc(OC(F)(F)F)ccc3F)c2C#N)CC1` [Example 349], the activity at 10 µM amounted to 290%. In the case of `CC(C)(F)C(=O)N[C@H]1CC[C@@H](n2cnc(-c3ccc(F)c(OC(F)(F)F)c3)c2C#N)CC1` [Example 350], the activity at 1 µM is 670%. As for `Cc1c(-c2ccc(F)cc2)ncn1[C@H]1CC[C@@H](NC(=O)C(C)(C)F)CC1` [Example 351], the activity at 10 µM amounted to 540%. `Cc1c(-c2ccc(F)cc2)ncn1[C@H]1CC[C@@H](NC(=O)C2CCOCC2)CC1` [Example 352]: the activity at 10 µM was found to be 164%. Regarding `Cc1c(-c2ccc(F)cc2)ncn1[C@H]1CC[C@@H](NC(=O)C2CCC(F)(F)CC2)CC1` [Example 353], the activity at 10 µM is 518%. `Cc1c(-c2ccc(F)cc2)ncn1[C@H]1CC[C@@H](NC(=O)C(C)(C)C)CC1` [Example 354]: the activity at 10 µM was found to be 230%.

With `O=C(NC1CCOCC1)[C@H]1CC[C@@H](n2cnc(-c3cccc(F)c3)c2)CC1` [Example 355], the activity at 1 µM was determined as 118%. On the same count and under the same terms, to `O=C(NC1CCOCC1)[C@H]1CC[C@@H](n2cnc(-c3ccccc3F)c2)CC1` [Example 356] belongs 119%. For the compound `O=C(NC1CCOCC1)[C@H]1CC[C@@H](n2cnc(-c3ccc(F)c(F)c3)c2)CC1` [Example 357], the activity at 1 µM is 130%.
